Data taken from ChEMBL document CHEMBL4507285, “Data for DCP probe MRL-SYKi” (2021).

Experiments:
[1] = target: Serine/threonine-protein kinase 24 (Homo sapiens) (UniProt Q9Y6E0); conditions: Compound concentration 100.0 nM
[2] = target: Ribosomal protein S6 kinase alpha-1 (Homo sapiens) (UniProt Q15418); conditions: Compound concentration 100.0 nM
[3] = target: Activin receptor type-2A (Homo sapiens) (UniProt P27037); conditions: Compound concentration 100.0 nM
[4] = target: Ephrin type-B receptor 6 (Homo sapiens) (UniProt O15197); conditions: Compound concentration 100.0 nM
[5] = target: Myosin light chain kinase (Homo sapiens) (UniProt Q32MK0); conditions: Compound concentration 100.0 nM
[6] = target: MAP/microtubule affinity-regulating kinase 3 (Homo sapiens) (UniProt P27448); conditions: Compound concentration 100.0 nM
MAP/microtubule affinity-regulating kinase 3 (Homo sapiens), sequence (P27448 whole entry, looked up): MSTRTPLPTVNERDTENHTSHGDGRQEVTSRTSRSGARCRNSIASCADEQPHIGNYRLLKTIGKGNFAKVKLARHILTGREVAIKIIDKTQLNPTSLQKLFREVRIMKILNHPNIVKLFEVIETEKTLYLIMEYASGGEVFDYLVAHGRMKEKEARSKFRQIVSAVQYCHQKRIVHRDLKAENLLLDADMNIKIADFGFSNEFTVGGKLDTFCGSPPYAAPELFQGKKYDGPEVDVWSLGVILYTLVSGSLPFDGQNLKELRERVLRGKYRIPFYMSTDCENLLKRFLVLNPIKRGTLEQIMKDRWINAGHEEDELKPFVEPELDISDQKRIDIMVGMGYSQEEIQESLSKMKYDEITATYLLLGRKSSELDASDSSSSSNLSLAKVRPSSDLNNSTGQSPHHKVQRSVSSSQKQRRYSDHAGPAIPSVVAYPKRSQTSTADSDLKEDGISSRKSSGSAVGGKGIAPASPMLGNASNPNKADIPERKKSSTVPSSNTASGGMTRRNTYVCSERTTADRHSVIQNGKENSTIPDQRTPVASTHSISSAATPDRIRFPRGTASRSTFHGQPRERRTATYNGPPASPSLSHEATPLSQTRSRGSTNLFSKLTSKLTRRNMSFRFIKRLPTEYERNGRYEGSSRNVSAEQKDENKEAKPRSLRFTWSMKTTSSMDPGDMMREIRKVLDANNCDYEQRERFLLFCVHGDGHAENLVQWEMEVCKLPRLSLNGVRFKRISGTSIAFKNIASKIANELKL

[7] = target: Rho-associated protein kinase 1 (Homo sapiens) (UniProt Q13464); conditions: Compound concentration 100.0 nM
[8] = target: Vascular endothelial growth factor receptor 2 (Homo sapiens) (UniProt P35968); conditions: Compound concentration 100.0 nM
[9] = target: Serine/threonine-protein kinase ICK (Homo sapiens) (UniProt Q9UPZ9); conditions: Compound concentration 100.0 nM
[10] = target: Serine/threonine-protein kinase D2 (Homo sapiens) (UniProt Q9BZL6); conditions: Compound concentration 100.0 nM
[11] = target: D(4) dopamine receptor (Homo sapiens) (UniProt P21917); conditions: Compound concentration 10.0 uM
[12] = target: Mitogen-activated protein kinase kinase kinase kinase 2 (Homo sapiens) (UniProt Q12851); conditions: Compound concentration 100.0 nM
[13] = system: Leucine-rich repeat serine/threonine-protein kinase 2 (Homo sapiens), Q5S007 [G2019S]; conditions: Compound concentration 100.0 nM
[14] = system: Phosphatidylinositol 4,5-bisphosphate 3-kinase catalytic subunit alpha isoform (Homo sapiens), P42336 [M1043I]; conditions: Compound concentration 100.0 nM
[15] = target: Myosin light chain kinase 2, skeletal/cardiac muscle (Homo sapiens) (UniProt Q9H1R3); conditions: Compound concentration 100.0 nM
[16] = target: Alpha-2A adrenergic receptor (Homo sapiens) (UniProt P08913); conditions: Compound concentration 10.0 uM
[17] = target: Serine/threonine-protein kinase N2 (Homo sapiens) (UniProt Q16513); conditions: Compound concentration 100.0 nM
Serine/threonine-protein kinase N2 (Homo sapiens), sequence (Q16513 whole entry, looked up): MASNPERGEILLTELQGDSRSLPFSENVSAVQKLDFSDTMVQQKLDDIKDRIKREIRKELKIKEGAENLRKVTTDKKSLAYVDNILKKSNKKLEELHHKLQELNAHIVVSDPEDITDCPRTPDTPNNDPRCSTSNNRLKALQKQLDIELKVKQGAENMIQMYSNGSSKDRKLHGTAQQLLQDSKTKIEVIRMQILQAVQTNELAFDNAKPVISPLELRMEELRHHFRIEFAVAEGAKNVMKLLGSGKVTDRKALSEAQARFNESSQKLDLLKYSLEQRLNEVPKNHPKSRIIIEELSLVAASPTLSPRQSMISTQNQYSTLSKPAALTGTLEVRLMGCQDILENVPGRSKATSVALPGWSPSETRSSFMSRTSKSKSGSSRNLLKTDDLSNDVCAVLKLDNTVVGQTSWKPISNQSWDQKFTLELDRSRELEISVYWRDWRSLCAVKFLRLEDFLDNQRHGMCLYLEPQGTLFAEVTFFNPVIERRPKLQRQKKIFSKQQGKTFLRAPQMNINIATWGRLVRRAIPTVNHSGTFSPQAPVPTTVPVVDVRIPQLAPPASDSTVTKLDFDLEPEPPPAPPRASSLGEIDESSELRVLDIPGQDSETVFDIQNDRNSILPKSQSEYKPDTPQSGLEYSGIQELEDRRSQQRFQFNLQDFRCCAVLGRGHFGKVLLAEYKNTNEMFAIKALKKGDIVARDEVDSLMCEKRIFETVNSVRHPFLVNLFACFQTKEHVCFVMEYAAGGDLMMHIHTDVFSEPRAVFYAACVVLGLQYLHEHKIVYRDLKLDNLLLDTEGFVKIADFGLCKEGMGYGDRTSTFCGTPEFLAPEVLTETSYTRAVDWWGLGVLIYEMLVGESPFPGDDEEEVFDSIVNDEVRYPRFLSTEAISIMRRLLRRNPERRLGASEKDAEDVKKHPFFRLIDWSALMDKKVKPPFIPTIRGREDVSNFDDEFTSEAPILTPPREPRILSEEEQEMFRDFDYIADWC

[18] = target: 5-hydroxytryptamine receptor 2A (Homo sapiens) (UniProt P28223); conditions: Compound concentration 10.0 uM
[19] = target: Alpha-2C adrenergic receptor (Homo sapiens) (UniProt P18825); conditions: Compound concentration 10.0 uM
[20] = target: Serine/threonine-protein kinase PAK 1 (Homo sapiens) (UniProt Q13153); conditions: Compound concentration 100.0 nM
[21] = target: Histamine H1 receptor (Homo sapiens) (UniProt P35367); conditions: Compound concentration 10.0 uM
[22] = target: Serine/threonine-protein kinase PAK 5 (Homo sapiens) (UniProt Q9P286); conditions: Compound concentration 100.0 nM
[23] = target: Ephrin type-B receptor 4 (Homo sapiens) (UniProt P54760); conditions: Compound concentration 100.0 nM
[24] = target: Mitogen-activated protein kinase kinase kinase 10 (Homo sapiens) (UniProt Q02779); conditions: Compound concentration 100.0 nM
[25] = target: Serine/threonine-protein kinase PAK 6 (Homo sapiens) (UniProt Q9NQU5); conditions: Compound concentration 100.0 nM
[26] = system: Receptor-type tyrosine-protein kinase FLT3 (Homo sapiens), P36888 [K663Q]; conditions: Compound concentration 100.0 nM
[27] = target: Death-associated protein kinase 2 (Homo sapiens) (UniProt Q9UIK4); conditions: Compound concentration 100.0 nM
Death-associated protein kinase 2 (Homo sapiens), sequence (Q9UIK4 whole entry, looked up): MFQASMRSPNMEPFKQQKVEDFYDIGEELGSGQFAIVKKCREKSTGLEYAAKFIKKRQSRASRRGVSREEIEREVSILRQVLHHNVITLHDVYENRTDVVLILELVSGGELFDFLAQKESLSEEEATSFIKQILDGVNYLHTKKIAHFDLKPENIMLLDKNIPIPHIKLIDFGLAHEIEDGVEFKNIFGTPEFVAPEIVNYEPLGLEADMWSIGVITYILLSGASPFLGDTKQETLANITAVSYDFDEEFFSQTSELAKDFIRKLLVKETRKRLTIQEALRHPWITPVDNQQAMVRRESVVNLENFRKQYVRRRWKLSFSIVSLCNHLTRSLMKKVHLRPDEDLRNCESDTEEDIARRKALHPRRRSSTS

[28] = target: Serine/threonine-protein kinase Sgk3 (Homo sapiens) (UniProt Q96BR1); conditions: Compound concentration 100.0 nM
[29] = target: Non-receptor tyrosine-protein kinase TYK2 (Homo sapiens) (UniProt P29597); conditions: Compound concentration 100.0 nM
Non-receptor tyrosine-protein kinase TYK2 (Homo sapiens), sequence (P29597 whole entry, canonical isoform): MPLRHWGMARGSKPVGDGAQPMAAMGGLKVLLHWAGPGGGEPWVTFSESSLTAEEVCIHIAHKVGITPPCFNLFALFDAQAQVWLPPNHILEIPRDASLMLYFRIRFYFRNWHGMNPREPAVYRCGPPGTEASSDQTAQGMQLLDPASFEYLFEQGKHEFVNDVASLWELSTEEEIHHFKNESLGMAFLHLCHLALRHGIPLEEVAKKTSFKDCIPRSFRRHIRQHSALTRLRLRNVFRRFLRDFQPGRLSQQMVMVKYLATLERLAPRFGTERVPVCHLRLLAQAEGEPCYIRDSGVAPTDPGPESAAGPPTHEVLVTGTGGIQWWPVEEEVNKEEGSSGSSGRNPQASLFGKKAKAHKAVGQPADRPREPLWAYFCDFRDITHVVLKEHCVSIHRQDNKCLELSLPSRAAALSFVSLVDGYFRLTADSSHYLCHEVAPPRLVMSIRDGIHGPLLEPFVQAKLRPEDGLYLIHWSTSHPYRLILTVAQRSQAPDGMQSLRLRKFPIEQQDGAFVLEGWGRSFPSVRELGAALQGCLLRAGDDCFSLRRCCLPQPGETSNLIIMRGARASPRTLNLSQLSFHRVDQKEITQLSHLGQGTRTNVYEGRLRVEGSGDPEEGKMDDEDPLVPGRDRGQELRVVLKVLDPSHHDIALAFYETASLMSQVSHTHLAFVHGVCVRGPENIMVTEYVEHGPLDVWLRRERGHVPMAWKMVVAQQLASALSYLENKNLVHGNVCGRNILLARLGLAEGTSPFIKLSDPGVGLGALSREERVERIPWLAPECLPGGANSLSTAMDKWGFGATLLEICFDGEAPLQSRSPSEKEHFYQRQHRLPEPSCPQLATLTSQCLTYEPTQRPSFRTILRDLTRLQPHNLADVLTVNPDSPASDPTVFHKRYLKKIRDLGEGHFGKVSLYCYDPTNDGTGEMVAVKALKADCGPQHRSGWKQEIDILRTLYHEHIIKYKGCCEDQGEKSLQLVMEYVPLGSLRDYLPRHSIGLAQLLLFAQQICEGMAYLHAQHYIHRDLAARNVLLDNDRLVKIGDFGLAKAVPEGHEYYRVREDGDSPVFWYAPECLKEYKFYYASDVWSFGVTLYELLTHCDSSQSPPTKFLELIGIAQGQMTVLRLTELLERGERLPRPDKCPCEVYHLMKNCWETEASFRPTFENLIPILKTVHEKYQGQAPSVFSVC

[30] = target: Phosphatidylinositol 4,5-bisphosphate 3-kinase catalytic subunit alpha isoform (Homo sapiens) (UniProt P42336); conditions: Compound concentration 100.0 nM
[31] = target: Beta-3 adrenergic receptor (Homo sapiens) (UniProt P13945); conditions: Compound concentration 10.0 uM
[32] = target: Calcium/calmodulin-dependent protein kinase kinase 2 (Homo sapiens) (UniProt Q96RR4); conditions: Compound concentration 100.0 nM
[33] = target: Serine/threonine-protein kinase pim-3 (Homo sapiens) (UniProt Q86V86); conditions: Compound concentration 100.0 nM
[34] = system: Tyrosine-protein kinase ABL1 (Homo sapiens), P00519 [H396P]; conditions: Compound concentration 100.0 nM
[35] = target: Serine/threonine-protein kinase PAK 2 (Homo sapiens) (UniProt Q13177); conditions: Compound concentration 100.0 nM
[36] = system: Epidermal growth factor receptor (Homo sapiens), P00533 [UNDEFINED MUTATION]; conditions: Compound concentration 100.0 nM
Epidermal growth factor receptor (Homo sapiens), P00533 [UNDEFINED MUTATION], sequence (P00533 whole entry, looked up, change not shown): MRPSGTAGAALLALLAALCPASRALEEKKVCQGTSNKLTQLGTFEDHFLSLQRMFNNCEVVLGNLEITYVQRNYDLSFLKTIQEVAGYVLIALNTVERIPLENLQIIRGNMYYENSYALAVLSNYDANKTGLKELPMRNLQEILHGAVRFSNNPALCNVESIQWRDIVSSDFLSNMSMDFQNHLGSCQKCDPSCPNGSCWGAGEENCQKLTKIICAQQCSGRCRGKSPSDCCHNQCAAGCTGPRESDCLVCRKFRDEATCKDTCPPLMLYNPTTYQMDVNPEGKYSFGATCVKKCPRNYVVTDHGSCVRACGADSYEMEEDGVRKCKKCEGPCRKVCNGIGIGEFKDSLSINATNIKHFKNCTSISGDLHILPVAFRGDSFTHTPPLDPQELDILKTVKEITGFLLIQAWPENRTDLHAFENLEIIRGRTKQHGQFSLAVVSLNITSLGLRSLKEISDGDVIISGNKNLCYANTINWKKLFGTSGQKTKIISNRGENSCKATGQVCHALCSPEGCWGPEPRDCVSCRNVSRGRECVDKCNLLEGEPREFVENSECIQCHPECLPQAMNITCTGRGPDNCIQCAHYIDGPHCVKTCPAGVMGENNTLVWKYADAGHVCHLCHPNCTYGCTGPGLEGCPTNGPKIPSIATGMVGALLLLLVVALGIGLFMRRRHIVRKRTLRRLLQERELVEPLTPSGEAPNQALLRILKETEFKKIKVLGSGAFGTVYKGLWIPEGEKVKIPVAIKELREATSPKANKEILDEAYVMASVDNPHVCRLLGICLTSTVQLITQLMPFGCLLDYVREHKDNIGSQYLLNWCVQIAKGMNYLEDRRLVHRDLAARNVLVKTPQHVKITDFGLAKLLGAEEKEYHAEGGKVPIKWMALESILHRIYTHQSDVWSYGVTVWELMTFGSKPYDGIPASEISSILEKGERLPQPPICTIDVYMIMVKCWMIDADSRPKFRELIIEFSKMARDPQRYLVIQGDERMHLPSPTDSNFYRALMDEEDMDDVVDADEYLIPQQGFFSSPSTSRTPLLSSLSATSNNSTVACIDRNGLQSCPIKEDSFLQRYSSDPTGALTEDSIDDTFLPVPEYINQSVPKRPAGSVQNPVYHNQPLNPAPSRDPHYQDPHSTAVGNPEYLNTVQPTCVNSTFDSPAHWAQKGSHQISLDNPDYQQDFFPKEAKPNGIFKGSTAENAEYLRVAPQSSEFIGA

[37] = system: Epidermal growth factor receptor (Homo sapiens), P00533 [UNDEFINED MUTATION]; conditions: Compound concentration 100.0 nM; remark: listed apart in the source
[38] = target: Serine/threonine-protein kinase 25 (Homo sapiens) (UniProt O00506); conditions: Compound concentration 100.0 nM
[39] = target: Serine/threonine-protein kinase NIM1 (Homo sapiens) (UniProt Q8IY84); conditions: Compound concentration 100.0 nM
[40] = target: Serine/threonine-protein kinase MARK1 (Homo sapiens) (UniProt Q9P0L2); conditions: Compound concentration 100.0 nM
[41] = system: Mast/stem cell growth factor receptor Kit (Homo sapiens), P10721 [D816H]; conditions: Compound concentration 100.0 nM
[42] = target: Proto-oncogene tyrosine-protein kinase ROS (Homo sapiens) (UniProt P08922); conditions: Compound concentration 100.0 nM
[43] = target: Ribosomal protein S6 kinase alpha-4 (Homo sapiens) (UniProt O75676); conditions: Compound concentration 100.0 nM
[44] = target: Histamine H4 receptor (Homo sapiens) (UniProt Q9H3N8); conditions: Compound concentration 10.0 uM
[45] = target: Serine/threonine-protein kinase Nek3 (Homo sapiens) (UniProt P51956); conditions: Compound concentration 100.0 nM

## Cc1ccc(-c2cnc([C@@]3(O)CC[C@H](C(=O)O)C(C)(C)C3)s2)cc1Nc1cccc(C(F)(F)F)n1 [MRL-SYKi-NC]
[1]
  residual activity: 100%
[2]
  residual activity: 91.2%
[3]
  residual activity: 96.9%
[4]
  residual activity: 78.6%
[5]
  residual activity: 90.9%
[6]
  residual activity: 100%
[7]
  residual activity: 100%
[8]
  residual activity: 100%
[9]
  residual activity: 91.7%
[10]
  residual activity: 100%
[11]
  inhibition: -9.54%
[12]
  residual activity: 100%
[13]
  residual activity: 64.9%
[14]
  residual activity: 90.4%
[15]
  residual activity: 90.9%
[16]
  inhibition: 34.5%
[17]
  residual activity: 96.3%
[18]
  inhibition: 11.2%
[19]
  inhibition: 11.8%
[20]
  residual activity: 94.5%
[21]
  inhibition: 9.09%
[22]
  residual activity: 96%
[23]
  residual activity: 100%
[24]
  residual activity: 69.4%
[25]
  residual activity: 70.5%
[26]
  residual activity: 100%
[27]
  residual activity: 84.8%
[28]
  residual activity: 100%
[29]
  residual activity: 100%
[30]
  residual activity: 86.9%
[31]
  inhibition: -6.54%
[32]
  residual activity: 91.5%
[33]
  residual activity: 89.2%
[34]
  residual activity: 87.2%
[35]
  residual activity: 89.5%
[36]
  residual activity: 100%
[37]
  residual activity: 67.1%
[38]
  residual activity: 72.5%
[39]
  residual activity: 100%
[40]
  residual activity: 62.8%
[41]
  residual activity: 61.4%
[42]
  residual activity: 91.5%
[43]
  residual activity: 95.1%
[44]
  inhibition: 8.06%
[45]
  residual activity: 82.8%

## Cc1cc(Nc2nccc(C)n2)cc(-c2cnc([C@@]3(O)CC[C@H](C(=O)O)C(C)(C)C3)s2)c1 [MRL-SYKi]
[1]
  residual activity: 83.5%
[2]
  residual activity: 93%
[3]
  residual activity: 85.6%
[4]
  residual activity: 34.7%
[5]
  residual activity: 100%
[6]
  residual activity: 100%
[7]
  residual activity: 70.7%
[8]
  residual activity: 100%
[9]
  residual activity: 65.4%
[10]
  residual activity: 96.1%
[11]
  inhibition: -6.05%
[12]
  residual activity: 100%
[13]
  residual activity: 92.3%
[14]
  residual activity: 61.8%
[15]
  residual activity: 100%
[16]
  inhibition: -2.14%
[17]
  residual activity: 100%
[18]
  inhibition: -4.23%
[19]
  inhibition: -3.94%
[20]
  residual activity: 100%
[21]
  inhibition: 7.85%
[22]
  residual activity: 100%
[23]
  residual activity: 100%
[24]
  residual activity: 95.1%
[25]
  residual activity: 100%
[26]
  residual activity: 82.1%
[27]
  residual activity: 100%
[28]
  residual activity: 100%
[29]
  residual activity: 100%
[30]
  residual activity: 100%
[31]
  inhibition: 3.43%
[32]
  residual activity: 69.7%
[33]
  residual activity: 100%
[34]
  residual activity: 74.3%
[35]
  residual activity: 100%
[36]
  residual activity: 65%
[37]
  residual activity: 67.7%
[38]
  residual activity: 100%
[39]
  residual activity: 100%
[40]
  residual activity: 95.3%
[41]
  residual activity: 97.7%
[42]
  residual activity: 97%
[43]
  residual activity: 100%
[44]
  inhibition: 7.61%
[45]
  residual activity: 50.7%
